Test results reported in ChEMBL document CHEMBL1126116, “Synthesis and antibronchospastic activity of 8-alkoxy- and 8-(alkylamino)imidazo[1,2-a]pyrazines” (J Med Chem, 1992).

How the values were obtained:
Rattus norvegicus [1] = organism: Rattus norvegicus; test: Inhibition of spontaneous contraction of isolated rat uterus; type: functional; settings: read-out: ED50 (the source's name)
Mus musculus [2] = test: Locomotor activity (no. light beam crossings in 50 min) in mice by intravenous dose at 55 umol/kg; type: functional
Cavia porcellus = organism: Cavia porcellus; test: (§1) Inhibition of carbachol induced tracheal contraction; type: functional; settings: Trachea, read-out: ED50 (the source's name)
[3] = Compound was tested for its acute toxicity in mice when given orally.; type: organism-based; settings: mouse, in vivo, po
Mus musculus [4] = test: Locomotor activity (no. light beam crossings in 50 min) in mice by intravenous dose at 166 umol/kg; type: functional
Heart phosphodiesterase = Heart phosphodiesterase (Bos taurus, UniProt Q01061+P14100+E1BN64); test: Inhibition of bovine heart phosphodiesterase; type: protein assay
[5] = Compound was tested for it's acute toxicity in mice when given orally.; type: organism-based; settings: mouse, in vivo, po
Rattus norvegicus [6] = organism: Rattus norvegicus; test: as §1; type: functional; settings: Trachea, read-out: ED50 (the source's name)

With `CNc1nccn2c(Br)cnc12` the EC50 (Rattus norvegicus [1]) was 100 µM, the Activity (Mus musculus [2]) was -25% and the EC50 (Cavia porcellus) was 97 µM. It also gave an LD50 [3] of 4200 µmol/kg, an Activity (Mus musculus [4]) of -57% and an IC50 (Heart phosphodiesterase) of 337 µM.

With `CNc1nc(Br)cn2cc(C#N)nc12` the EC50 (Rattus norvegicus [1]) was 2 µM, the LD50 [5] was 500 µmol/kg and the Activity (Mus musculus [2]) was -64%. The EC50 (Rattus norvegicus [6]) was 2 µM and the IC50 (Heart phosphodiesterase) was 70 µM.

In the case of `CCNc1nc(Br)cn2ccnc12`, the EC50 (Rattus norvegicus [1]) is reported as 130 µM, the LD50 [5] is reported as 2900 µmol/kg and the Activity (Mus musculus [2]) is reported as -13%. For the same molecule, the EC50 (Rattus norvegicus [6]) was 65 µM, the Activity (Mus musculus [4]) was -73% and the IC50 (Heart phosphodiesterase) was 81 µM.

For `Cn1c(=O)c2nc[nH]c2n(C)c1=O.O` [THEOPHYLLINE], the EC50 (Rattus norvegicus [1]) was 900 µM, the LD50 [5] was 1900 µmol/kg and the Activity (Mus musculus [2]) was 130%. For the same molecule, the EC50 (Rattus norvegicus [6]) was 920 µM, the Activity (Mus musculus [4]) was 170% and the IC50 (Heart phosphodiesterase) was 92 µM.

With `Nc1nc(Br)cn2ccnc12` the EC50 (Rattus norvegicus [1]) was 300 µM, the LD50 [5] was 1300 µmol/kg and the Activity (Mus musculus [2]) was -53%. The EC50 (Rattus norvegicus [6]) was 93 µM, the Activity (Mus musculus [4]) was -83% and the IC50 (Heart phosphodiesterase) was 267 µM.

With `CNc1nc(Br)cn2ccnc12` the EC50 (Rattus norvegicus [1]) was 160 µM, the LD50 [5] was 2200 µmol/kg and the Activity (Mus musculus [2]) was -75%. The EC50 (Rattus norvegicus [6]) was 24 µM, the Activity (Mus musculus [4]) was -83% and the IC50 (Heart phosphodiesterase) was 27 µM.
